Patent US8877681B2, “Use of specific alcohol alkoxylates as an adjuvant for agrotechnical applications” (BASF SE, priority 2002, dated 2014)

Legend:
[1] = system: white goosefoot (Chenepodium album; CHEAL); experiment: Greenhouse herbicidal efficacy test, tank mix of herbicide and adjuvant, post-emergence spray; type: in vivo; conditions: 0% no damage, 100% complete damage
Description: (§1) The alkoxylates were applied by the tank mix method together with Basagran (480 g/l bentazone) or BAS 635 H (71.4% by weight of tritosulfuron). […] The herbicidal effect was assessed in a greenhouse experiment. The test plant used was white goosefoot (Chenepodium album; CHEAL) and the common morningglory (Pharbitis album; PHAAL).
(§2) The plants were sown directly or pricked out at a rate of 3-15 plants per pot. When the active ingredient was applied, the plants were 5-16 cm in height. The test containers used were plastic pots containing loamy sand and approximately 3% humus as substrate. The surfactants were applied by the tank mix method by spray application post-emergence in an automated spray cabinet with a water application rate of 400 liters per hectare. The experimental period was 6 days to 4 weeks. Evaluation was carried out using a scale of from 0% to 100%. 0% means no damage, 100% means complete damage.

[2] = system: common morningglory (Pharbitis album; PHAAL); experiment: as above; type: in vivo; conditions: Tritosulfuron (BAS 635 H) 0.250 kg/ha as printed in table + adjuvant 0.125 kg/ha (Comparison 0.250 kg/ha), 0% no damage, 100% complete damage
Description: as §1, §2

| Structure (SMILES) | CHEAL herbicidal effect (damage, scale 0% to 100%) ([1]; Tritosulfuron (BAS 635 H) 0.250 kg/ha as printed in table + adjuvant 0.125 kg/ha (Comparison 0.250 kg/ha)) [%] | PHAAL herbicidal effect (damage, scale 0% to 100%) [2] [%] | CHEAL herbicidal effect (damage, scale 0% to 100%) ([1]; Bentazone (Basagran) 0.250 kg/ha + adjuvant 0.125 kg/ha (Comparison 0.250 kg/ha), 400 l/ha water) [%] |
| --- | --- | --- | --- |
| COc1nc(NC(=O)NS(=O)(=O)c2ccccc2C(F)(F)F)nc(C(F)(F)F)n1 [Tritosulfuron, tritosulfuron] | 35 | 48 |  |
| CC(C)N1C(=O)c2ccccc2NS1(=O)=O [Bentazone, bentazone] |  |  | 23 |
